# According to article PMC10350924, “Design, Synthesis, and Pharmacological Characterization of a Potent Soluble Epoxide Hydrolase Inhibitor for the Treatment of Acute Pancreatitis” (Journal of Medicinal Chemistry, 2023):
# Several values for one entry are separate records, joined by “and”; a condition that tells them apart may be missing. Identical values can stand only once.
# How the values were obtained:
# [1] = target: T1, 5-LOX (Homo sapiens, UniProt P09917); test: 5-LOX product formation in human activated PMNL (A23187); format: cell-based; set-up: Freshly isolated PMNL (5 × 10^6) suspended in PBS pH 7.4 with 1 mg/mL glucose were preincubated with the test compounds; endogenous in cells; host or cells: human PMNL from donor blood; remaining activity: dose or concentration left out as unconfirmed; settings: for remaining activity at 10 µM: read-out: 5-LOX residual activity in PMNL (%) at 10 μM; for remaining activity: PMNL, read-out: 5-LO residual activity in PMNL (%)
# T1 sequence (P09917 1-674): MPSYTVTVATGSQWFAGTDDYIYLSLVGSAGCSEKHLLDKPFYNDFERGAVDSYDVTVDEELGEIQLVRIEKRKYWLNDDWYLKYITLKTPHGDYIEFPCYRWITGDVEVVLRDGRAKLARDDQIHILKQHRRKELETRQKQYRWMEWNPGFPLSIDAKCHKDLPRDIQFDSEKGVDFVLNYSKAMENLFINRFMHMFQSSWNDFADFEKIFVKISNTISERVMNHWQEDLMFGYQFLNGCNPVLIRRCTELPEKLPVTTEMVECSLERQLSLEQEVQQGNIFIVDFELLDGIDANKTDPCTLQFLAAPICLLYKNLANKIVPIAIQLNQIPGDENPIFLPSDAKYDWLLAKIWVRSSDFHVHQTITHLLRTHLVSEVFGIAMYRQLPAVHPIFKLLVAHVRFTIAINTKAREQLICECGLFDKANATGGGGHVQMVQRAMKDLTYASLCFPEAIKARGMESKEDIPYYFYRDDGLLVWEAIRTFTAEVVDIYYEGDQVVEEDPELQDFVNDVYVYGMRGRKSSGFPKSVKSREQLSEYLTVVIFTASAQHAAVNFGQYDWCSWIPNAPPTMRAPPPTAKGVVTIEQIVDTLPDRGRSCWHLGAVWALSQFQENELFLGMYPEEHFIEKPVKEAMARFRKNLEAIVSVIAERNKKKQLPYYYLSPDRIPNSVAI
# Experimental: Human PMNL were freshly isolated from leukocyte concentrates that were obtained from the Institute for Transfusion Medicine of the University Hospital Jena (Germany). […] These volunteers regularly donated blood (every 8–12 weeks) and were physically inspected by a clinician. […] Leukocytes were concentrated by centrifugation (4000g/20 min/20 °C) of freshly withdrawn blood. […] PMNL were obtained from the cell pellet. […] The reaction was stopped with an equal volume of methanol containing PGB1 (200 ng) as internal standard. Major 5-LOX products (all-trans isomers of LTB and 5-HETE, and additionally LTB4) were extracted and analyzed by RP-HPLC as described for the determination of cell-free 5-LOX activity.
# [2] = target: T2, Human recombinant sEH (Homo sapiens, UniProt P34913); test: Cell-free sEH activity (PHOME fluorescence); format: biochemical; settings: human isolated sEH
# T2 construct: made in house; host or cells: Sf9 insect cells (recombinant baculovirus)
# T2 sequence (P34913 1-555): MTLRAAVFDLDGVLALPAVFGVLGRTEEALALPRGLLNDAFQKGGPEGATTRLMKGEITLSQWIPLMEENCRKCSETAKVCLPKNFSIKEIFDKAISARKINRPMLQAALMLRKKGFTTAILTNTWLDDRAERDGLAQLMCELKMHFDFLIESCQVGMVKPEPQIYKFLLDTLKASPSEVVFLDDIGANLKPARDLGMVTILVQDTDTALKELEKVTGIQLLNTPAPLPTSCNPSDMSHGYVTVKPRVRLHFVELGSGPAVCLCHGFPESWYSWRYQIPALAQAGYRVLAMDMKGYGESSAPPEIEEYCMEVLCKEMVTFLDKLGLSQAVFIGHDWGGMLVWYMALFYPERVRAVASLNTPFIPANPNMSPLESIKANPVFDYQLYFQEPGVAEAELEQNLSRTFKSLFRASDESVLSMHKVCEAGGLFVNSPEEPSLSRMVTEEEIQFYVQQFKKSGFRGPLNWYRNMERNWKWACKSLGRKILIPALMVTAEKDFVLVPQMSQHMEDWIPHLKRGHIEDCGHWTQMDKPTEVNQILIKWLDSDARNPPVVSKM
# Experimental: Human recombinant sEH was expressed in Sf9 insect cells and purified by affinity chromatography. […] Elution with 4-fluorochalcone oxide in PBS pH 7.4 with 1 mM dithiothreitol and 1 mM EDTA yielded sEH, which was dialyzed and concentrated. Purified sEH (60 ng) in 25 mM Tris HCl pH 7 with 0.1 mg/mL bovine serum albumin (BSA) was preincubated with the vehicle (DMSO) or test compounds for 1 min at room temperature. The sEH substrate PHOME (20 μM, Cayman Chemicals) was added to start the enzymatic reaction, which was stopped after 60 min in the dark by the addition of ZnSO4 (200 mM).
remaining activity at 10 µM ([1]; human activated PMNL),remaining activity [1],IC50 [2],IC50 ([1]; human activated PMNL),Structure (SMILES)
59.4 ± 6.7%,59.4 ± 6.7%,1.75 ± 0.593 nM,,"O=C(NCC12C[C@H]3C[C@@H](C1)C[C@@H](C2)C3)Nc1ccc2c(ccn2Cc2ccc(F)cc2)c1 [Compound 27, 1-(((3R,5R,7R)-Adamantan-1-yl)methyl)-3-(1-(4-fluorobenzyl)-1H-indol-5-yl)urea]"
35.4 ± 3.1%,35.4 ± 3.1%,7.22 ± 1.11 nM,240 nM and 243 nM,"O=C(Nc1ccc2c(c1)CCN2Cc1ccc(F)cc1)NC12C[C@H]3C[C@@H](C1)C[C@@H](C2)C3 [Compound 6, 1-((3S,5S,7S)-Adamantan-1-yl)-3-(1-(4-fluorobenzyl)indolin-5-yl)urea]"
65.1 ± 6.2%,65.1 ± 6.2%,1.1 ± 0.4 nM,,"O=C(NCC12C[C@H]3C[C@@H](C1)C[C@@H](C2)C3)Nc1ccc2c(ccn2CCc2ccc(F)cc2)c1 [Compound 30, 1-(((3R,5R,7R)-Adamantan-1-yl)methyl)-3-(1-(4-fluorophenethyl)-1H-indol-5-yl)urea]"
58.1 ± 5.5%,58.1 ± 5.5%,2.6 ± 0.4 nM,,"O=C(NCC12C[C@H]3C[C@@H](C1)C[C@@H](C2)C3)Nc1ccc2c(ccn2C(=O)c2ccc(F)cc2)c1 [Compound 36, 1-(((3R,5R,7R)-Adamantan-1-yl)methyl)-3-(1-(4-fluorobenzoyl)-1H-indol-5-yl)urea]"

Structure (SMILES),remaining activity at 10 µM ([1]; human activated PMNL),remaining activity [1],IC50 [2],IC50 ([1]; human activated PMNL)
"CC(C)c1ccc(Cn2ccc3cc(NC(=O)NCC45C[C@H]6C[C@@H](C4)C[C@@H](C5)C6)ccc32)cc1 [Compound 28, 1-(((3R,5R,7R)-Adamantan-1-yl)methyl)-3-(1-(4-isopropylbenzyl)-1H-indol-5-yl)urea]",93.6 ± 4.8%,93.6 ± 4.8%,2 ± 1.1 nM,
